SMILES strings stand for the structures.

Here are results for 29 molecules from patent publication US9388140B2, “Substituted benzimidazoles” (priority 2011, dated 2016).

For the first assay, the target named is human kinase Mps-1 (Homo sapiens (Human), UniProt P33981). In words: Mps-1 kinase assay (TR-FRET). It counts as biochemical.
human kinase Mps-1, sequence (P33981 whole entry): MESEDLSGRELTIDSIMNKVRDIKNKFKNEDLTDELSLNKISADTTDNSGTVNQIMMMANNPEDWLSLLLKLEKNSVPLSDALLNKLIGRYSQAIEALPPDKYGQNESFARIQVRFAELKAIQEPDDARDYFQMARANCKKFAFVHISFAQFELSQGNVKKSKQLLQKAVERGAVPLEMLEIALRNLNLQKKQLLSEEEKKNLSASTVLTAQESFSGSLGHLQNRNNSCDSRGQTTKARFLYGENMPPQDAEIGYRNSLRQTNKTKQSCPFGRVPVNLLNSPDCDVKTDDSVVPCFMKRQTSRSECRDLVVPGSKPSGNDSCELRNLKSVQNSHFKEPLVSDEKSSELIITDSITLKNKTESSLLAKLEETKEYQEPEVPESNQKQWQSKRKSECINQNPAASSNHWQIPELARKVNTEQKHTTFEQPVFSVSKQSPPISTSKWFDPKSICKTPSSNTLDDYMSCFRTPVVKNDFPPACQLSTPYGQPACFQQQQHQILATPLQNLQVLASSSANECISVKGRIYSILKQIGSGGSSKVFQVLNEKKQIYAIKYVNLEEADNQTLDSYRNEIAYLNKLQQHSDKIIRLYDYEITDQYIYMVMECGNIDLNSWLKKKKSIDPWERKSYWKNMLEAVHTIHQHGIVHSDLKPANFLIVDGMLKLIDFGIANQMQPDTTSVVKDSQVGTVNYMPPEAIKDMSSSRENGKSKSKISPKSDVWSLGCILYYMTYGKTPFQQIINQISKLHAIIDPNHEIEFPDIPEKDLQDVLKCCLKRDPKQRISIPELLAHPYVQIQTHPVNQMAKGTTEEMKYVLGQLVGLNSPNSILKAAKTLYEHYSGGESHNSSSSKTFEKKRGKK
Details: not given
The essentials:
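GST-Mps-1 (full length, N-term tag) ~1 nM final, linear-range adjusted per lot; biotinylated peptide substrate. Detection: Eu-anti-pSer/Thr donor → SA-XLent acceptor TR-FRET, 1 h, 22° C. Inhibition of kinase activity.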
On to `O=C(NC1CC1)c1ccc(-n2cnc3c(NCCC(F)(F)F)cc(Oc4cccc(F)c4F)cc32)cc1` [Example 36, N-cyclopropyl-4-{6-(2,3-difluorophenoxy)-4-[(3,3,3-trifluoropropyl)amino]-1H-benzimidazol-1-yl}benzamide], for which it took 0.4 nM to reach half-maximal inhibition (IC50).

The same assay, now with this note: N-terminally GST-tagged human full length recombinant Mps-1; 10 μM ATP; 1 μM biotinylated peptide substrate; read-out: Mps1 IC50.
For `Cc1cc(-n2cnc3c(NCCC(F)(F)F)cc(Oc4ccc(OC(F)F)cc4)cc32)ccc1C(=O)NC1CC1` [Example 61, N-cyclopropyl-4-{6-[4-(difluoromethoxy)phenoxy]-4-[(3,3,3-trifluoropropyl)amino]-1H-benzimidazol-1-yl}-2-methylbenzamide], the IC50 was 1.3 nM.

With `CNC(=O)c1ccc(-n2cnc3c(NCCC(F)(F)F)cc(Oc4cccc(F)c4OC)cc32)cc1C` [Example 72, 4-{6-(3-fluoro-2-methoxyphenoxy)-4-[(3,3,3-trifluoropropyl)amino]-1H-benzimidazol-1-yl}-N,2-dimethylbenzamide], the IC50 was 33 nM.

For `COc1ccc(C(C)(O)c2cc(NCCC(F)(F)F)c3ncn(-c4ccc(C(=O)NC5CC5)c(C)c4)c3c2)cc1F` (racemic) [Example 103A, N-cyclopropyl-4-{6-[(1RS)-1-(3-fluoro-4-methoxyphenyl)-1-hydroxyethyl]-4-[(3,3,3-trifluoropropyl)amino]-1H-benzimidazol-1-yl}-2-methylbenzamide], the IC50 worked out at 2.7 nM.

Take `Cc1cc(-n2cnc3c(NCCC(F)(F)F)cc(Oc4ccccc4O)cc32)ccc1C(=O)NC1CC1` [Example 54, N-cyclopropyl-4-{6-(2-hydroxyphenoxy)-4-[(3,3,3-trifluoropropyl)amino]-1H-benzimidazol-1-yl}-2-methylbenzamide]: the IC50 was found to be 0.2 nM.

For `Cc1cc(-n2cnc3c(NCCC(F)(F)F)cc(Oc4cccc(C(F)F)c4)cc32)ccc1C(=O)NC1CC1` [Example 109, N-cyclopropyl-4-{6-[3-(difluoromethyl)phenoxy]-4-[(3,3,3-trifluoropropyl)amino]-1H-benzimidazol-1-yl}-2-methylbenzamide], the IC50 came to 2.8 nM.

With `COc1cccc(Nc2cc(NCCC(F)(F)F)c3ncn(-c4ccc(C(=O)NC5CC5)c(C)c4)c3c2)c1C` [Example 65, N-cyclopropyl-4-{6-[(3-methoxy-2-methylphenyl)amino]-4-[(3,3,3-trifluoropropyl)amino]-1H-benzimidazol-1-yl}-2-methylbenzamide], the IC50 is 2.8 nM.

Turning to `Cc1cc(-n2cnc3c(NCCC(F)(F)F)cc(Oc4cccc(S(F)(F)(F)(F)F)c4)cc32)ccc1C(=O)NC1CC1` [Example 96, N-cyclopropyl-2-methyl-4-{6-[3-(pentafluoro-lambda^6-sulfanyl)phenoxy]-4-[(3,3,3-trifluoropropyl)amino]-1H-benzimidazol-1-yl}benzamide], the IC50 came to 4.8 nM.

`Cc1cc(-n2cnc3c(NCC4CCOCC4)cc(Oc4ccc(Cl)c(F)c4)cc32)ccc1C(=O)NC1CC1` [Example 22, 4-{6-(4-Chloro-3-fluorophenoxy)-4-[(tetrahydro-2H-pyran-4-ylmethyl)amino]-1H-benzimidazol-1-yl}-N-cyclopropyl-2-methylbenzamide]: the IC50 turned out to be 2.7 nM.

With `Cc1cc(-n2cnc3c(NCCC(F)(F)F)cc(Oc4ccc(O)cc4)cc32)ccc1C(=O)NC1CC1` [Example 50, N-cyclopropyl-4-{6-(4-hydroxyphenoxy)-4-[(3,3,3-trifluoropropyl)amino]-1H-benzimidazol-1-yl}-2-methylbenzamide], the concentration for half-maximal inhibition (IC50) worked out at 1.1 nM.

On to `CCNC(=O)c1ccc(-n2cnc3c(NCC4CCOCC4)cc(Oc4ccc(OC)c(SC)c4)cc32)cc1C` [Example 113B, N-ethyl-4-{6-[4-methoxy-3-(methylsulfanyl)phenoxy]-4-[(tetrahydro-2H-pyran-4-ylmethyl)amino]-1H-benzimidazol-1-yl}-2-methylbenzamide], for which the IC50 is 54 nM.

Consider `CCNC(=O)c1ccc(-n2cnc3c(NCCC(F)(F)F)cc(Oc4cccc(F)c4F)cc32)cc1C` [Example 66, 4-{6-(2,3-difluorophenoxy)-4-[(3,3,3-trifluoropropyl)amino]-1H-benzimidazol-1-yl}-N-ethyl-2-methylbenzamide], for which the IC50 turned out to be 2.1 nM.

With `Cc1cc(-n2cnc3c(NCCC(F)(F)F)cc(Oc4ccc(S(C)(=O)=O)cc4)cc32)ccc1C(=O)NC1CC1` [Example 74, N-cyclopropyl-2-methyl-4-{6-[4-(methylsulfonyl)phenoxy]-4-[(3,3,3-trifluoropropyl)amino]-1H-benzimidazol-1-yl}benzamide], the IC50 stood at 6.4 nM.

In the case of `CNC(=O)c1ccc(-n2cnc3c(NCCC(F)(F)F)cc(Oc4cccc(O)c4)cc32)cc1C` [Example 94, 4-{6-(3-hydroxyphenoxy)-4-[(3,3,3-trifluoropropyl)amino]-1H-benzimidazol-1-yl}-N,2-dimethylbenzamide], the IC50 worked out at 3.1 nM.

Consider `Cc1cc(-n2cnc3c(NCCC(F)(F)F)cc(Oc4cccc(C(=O)NC5CC5)c4)cc32)ccc1C(=O)NC1CC1` [Example 79, N-cyclopropyl-4-{6-[3-(cyclopropylcarbamoyl)phenoxy]-4-[(3,3,3-trifluoropropyl)amino]-1H-benzimidazol-1-yl}-2-methylbenzamide], for which the IC50 amounted to 3.9 nM.

In the case of `CNC(=O)c1ccc(-n2cnc3c(NCC4CCOCC4)cc(Oc4ccc(O)cc4F)cc32)cc1C` [Example 115A, 4-{6-(2-fluoro-4-hydroxyphenoxy)-4-[(tetrahydro-2H-pyran-4-ylmethyl)amino]-1H-benzimidazol-1-yl}-N,2-dimethylbenzamide], the IC50 was found to be 7.3 nM.

As for `CNC(=O)c1ccc(-n2cnc3c(NCC4CCOCC4)cc(Oc4ccc(OC)c(F)c4)cc32)cc1C` [Example 42, 4-{6-(3-Fluoro-4-methoxyphenoxy)-4-[(tetrahydro-2H-pyran-4-ylmethyl)amino]-1H-benzimidazol-1-yl}-N,2-dimethylbenzamide], the IC50 was determined as 4.9 nM.

As for `Cc1cc(F)cc(Oc2cc(NCC3CCOCC3)c3ncn(-c4ccc(C(=O)NC5CC5)c(C)c4)c3c2)c1` [Example 15, N-cyclopropyl-4-{6-(3-fluoro-5-methylphenoxy)-4-[(tetrahydro-2H-pyran-4-ylmethyl)amino]-1H-benzimidazol-1-yl}-2-methylbenzamide], the IC50 is 0.6 nM.

For the molecule `Cc1cc(-n2cnc3c(NCCC(F)(F)F)cc(Oc4cccc(C#N)c4)cc32)ccc1C(=O)NC1CC1` [Example 77, 4-{6-(3-cyanophenoxy)-4-[(3,3,3-trifluoropropyl)amino]-1H-benzimidazol-1-yl}-N-cyclopropyl-2-methylbenzamide], the IC50 was 1 nM.

On to `CCNC(=O)c1ccc(-n2cnc3c(NCCC(F)(F)F)cc(Oc4ccccc4O)cc32)cc1C` [Example 55, N-ethyl-4-{6-(2-hydroxyphenoxy)-4-[(3,3,3-trifluoropropyl)amino]-1H-benzimidazol-1-yl}-2-methylbenzamide], for which the IC50 was found to be 0.7 nM.

Regarding `COc1ccc(Oc2cc(NCC3CCOCC3)c3ncn(-c4ccc(C(=O)NC5CC5)c(C)c4)c3c2)c(SC)c1` [Example 116B, N-cyclopropyl-4-{6-[4-methoxy-2-(methylsulfanyl)phenoxy]-4-[(tetrahydro-2H-pyran-4-ylmethyl)amino]-1H-benzimidazol-1-yl}-2-methylbenzamide], the IC50 came to 2.9 nM.

`Cc1cc(-n2cnc3c(NCCC(F)(F)F)cc(Oc4ccc(Cl)cc4)cc32)ccc1C(=O)NC1CC1` [Example 18, 4-{6-(4-Chlorophenoxy)-4-[(3,3,3-trifluoropropyl)amino]-1H-benzimidazol-1-yl}-N-cyclopropyl-2-methylbenzamide]: the IC50 turned out to be 2.4 nM.

Regarding `CCNC(=O)c1ccc(-n2cnc3c(NCCC(F)(F)F)cc(Oc4cccc(O)c4)cc32)cc1C` [Example 95, N-ethyl-4-{6-(3-hydroxyphenoxy)-4-[(3,3,3-trifluoropropyl)amino]-1H-benzimidazol-1-yl}-2-methylbenzamide], the IC50 amounted to 5.6 nM.

`Cc1cc(-n2cnc3c(NCCC(F)(F)F)cc(-c4ccccc4CO)cc32)ccc1C(=O)NC1CC1` [Example 21, N-cyclopropyl-4-{6-[2-(hydroxymethyl)phenyl]-4-[(3,3,3-trifluoropropyl)amino]-1H-benzimidazol-1-yl}-2-methylbenzamide]: the IC50 was found to be 1.8 nM.

As to `C=C(c1ccc(OC)c(F)c1)c1cc(NCCC(F)(F)F)c2ncn(-c3ccc(C(=O)NC4CC4)c(C)c3)c2c1` [Example 104, N-cyclopropyl-4-{6-[1-(3-fluoro-4-methoxyphenyl)vinyl]-4-[(3,3,3-trifluoropropyl)amino]-1H-benzimidazol-1-yl}-2-methylbenzamide], the IC50 amounted to 2.1 nM.

Regarding `CNC(=O)c1ccc(-n2cnc3c(NCCC(F)(F)F)cc(Oc4ccc(O)cc4F)cc32)cc1C` [Example 97, 4-{6-(2-fluoro-4-hydroxyphenoxy)-4-[(3,3,3-trifluoropropyl)amino]-1H-benzimidazol-1-yl}-N,2-dimethylbenzamide], the 50% inhibitory concentration (IC50) was found to be 4.6 nM.

Turning to `Cc1cc(-n2cnc3c(NCCC(F)(F)F)cc(Oc4cccc(O)c4)cc32)ccc1C(=O)NC1CC1` [Example 111, N-cyclopropyl-4-{6-(3-hydroxyphenoxy)-4-[(3,3,3-trifluoropropyl)amino]-1H-benzimidazol-1-yl}-2-methylbenzamide], the IC50 is 0.6 nM.

Turning to `COc1ccc(Oc2cc(NCCC(F)(F)F)c3ncn(-c4ccc(C(=O)NC5CC5)cc4)c3c2)cc1F` [Example 38, N-cyclopropyl-4-{6-(3-fluoro-4-methoxyphenoxy)-4-[(3,3,3-trifluoropropyl)amino]-1H-benzimidazol-1-yl}benzamide], the IC50 turned out to be 0.4 nM.

Take `Cc1cc(-n2cnc3c(NCCC(F)(F)F)cc(Oc4cccc(OC(F)F)c4)cc32)ccc1C(=O)NC1CC1` [Example 62, N-cyclopropyl-4-{6-[3-(difluoromethoxy)phenoxy]-4-[(3,3,3-trifluoropropyl)amino]-1H-benzimidazol-1-yl}-2-methylbenzamide]: the IC50 turned out to be 3.2 nM.
